Results taken from ChEMBL document CHEMBL3885881, “DrugMatrix”.

Organism: Rattus norvegicus
Assay: DrugMatrix - Regimen: Daily Repeat
Type: toxicity, organism-based, Sprague-Dawley
Design: regimen Daily Repeat, gender Male, age 6-8 weeks
Conditions: in vivo, po, route oral GAVAGE, vehicle 100 % WATER; for ABSOLUTE BASOPHIL / ABSOLUTE EOSINOPHIL / ABSOLUTE LYMPHOCYTE / ABSOLUTE MONOCYTE / ABSOLUTE SEGMENTED NEUTROPHIL / BASOPHIL / EOSINOPHIL / ERYTHROCYTE COUNT / HEMATOCRIT / HEMOGLOBIN / LEUKOCYTE COUNT / LYMPHOCYTE / MEAN CORPUSCULAR HEMOGLOBIN / MEAN CORPUSCULAR HEMOGLOBIN CONCENTRATION / MEAN CORPUSCULAR VOLUME / MONOCYTE / NEUTROPHIL / NUCLEATED RED BLOOD CELLS / PLATELET COUNT: tissue Blood; for ALANINE AMINOTRANSFERASE / ALBUMIN / ALKALINE PHOSPHATASE / ASPARTATE AMINOTRANSFERASE / BLOOD UREA NITROGEN / CARBON DIOXIDE / CHLORIDE / CHOLESTEROL / CREATINE PHOSPHOKINASE / CREATININE / GLUCOSE / LACTATE DEHYDROGENASE / LIPASE / PHOSPHORUS / POTASSIUM / SODIUM / TOTAL BILIRUBIN / TOTAL PROTEIN / URIC ACID: tissue Plasma
[1] = 28 mg/kg, 120 h, dose level Low, time 5 day
[2] = 100 mg/kg, 72 h, dose level High, time 3 day
[3] = 100 mg/kg, 120 h, dose level High, time 5 day

Cn1cc[nH]c1=S [METHIMAZOLE]
ABSOLUTE BASOPHIL [1]: 0 CELLS/uL
ABSOLUTE EOSINOPHIL [1]: 0 CELLS/uL
ABSOLUTE LYMPHOCYTE [1]: 6311.33 CELLS/uL
ABSOLUTE MONOCYTE [1]: 62 CELLS/uL
ABSOLUTE SEGMENTED NEUTROPHIL [1]: 560 CELLS/uL
BASOPHIL [1]: 0%
EOSINOPHIL [1]: 0%
ERYTHROCYTE COUNT [1]: 5.37 x10E6/uL
HEMATOCRIT [1]: 33.8%
HEMOGLOBIN [1]: 13.17 G/DL
LEUKOCYTE COUNT [1]: 6.93 x10E3/uL
LYMPHOCYTE [1]: 90.67%
MEAN CORPUSCULAR HEMOGLOBIN [1]: 24.57 pg
MEAN CORPUSCULAR HEMOGLOBIN CONCENTRATION [1]: 38.93 G/DL
MEAN CORPUSCULAR VOLUME [1]: 63.03 fL
MONOCYTE [1]: 0.67%
NEUTROPHIL [1]: 8.67%
NUCLEATED RED BLOOD CELLS [1]: 0.33 /100WBC
PLATELET COUNT [1]: 1274.33 x10E3/uL
ALANINE AMINOTRANSFERASE [1]: 41.33 u/L
ALBUMIN [1]: 4.13 G/DL
ALKALINE PHOSPHATASE [1]: 368.67 u/L
ASPARTATE AMINOTRANSFERASE [1]: 68.67 u/L
BLOOD UREA NITROGEN [1]: 19.67 mg/dL
CARBON DIOXIDE [1]: 30.33 mmol/L
CHLORIDE [1]: 101 MEQ/L
CHOLESTEROL [1]: 101.33 mg/dL
CREATINE PHOSPHOKINASE [1]: 173 u/L
CREATININE [1]: 0.18 mg/dL
GLUCOSE [1]: 143.67 mg/dL
LACTATE DEHYDROGENASE [1]: 143.67 u/L
LIPASE [1]: 9 u/L
PHOSPHORUS [1]: 10.27 mg/dL
POTASSIUM [1]: 4.87 MEQ/L
SODIUM [1]: 144.47 MEQ/L
TOTAL BILIRUBIN [1]: 0.17 mg/dL
TOTAL PROTEIN [1]: 6.43 G/DL
URIC ACID [1]: 0.53 mg/dL
ABSOLUTE BASOPHIL [2]: 0 CELLS/uL
ABSOLUTE EOSINOPHIL [2]: 0 CELLS/uL
ABSOLUTE LYMPHOCYTE [2]: 13500.67 CELLS/uL
ABSOLUTE MONOCYTE [2]: 119.33 CELLS/uL
ABSOLUTE SEGMENTED NEUTROPHIL [2]: 980 CELLS/uL
BASOPHIL [2]: 0%
EOSINOPHIL [2]: 0%
ERYTHROCYTE COUNT [2]: 5.56 x10E6/uL
HEMATOCRIT [2]: 35.97%
HEMOGLOBIN [2]: 14.1 G/DL
LEUKOCYTE COUNT [2]: 14.6 x10E3/uL
LYMPHOCYTE [2]: 92.67%
MEAN CORPUSCULAR HEMOGLOBIN [2]: 25.4 pg
MEAN CORPUSCULAR HEMOGLOBIN CONCENTRATION [2]: 39.2 G/DL
MEAN CORPUSCULAR VOLUME [2]: 64.73 fL
MONOCYTE [2]: 1%
NEUTROPHIL [2]: 6.33%
NUCLEATED RED BLOOD CELLS [2]: 0.67 /100WBC
PLATELET COUNT [2]: 1423.33 x10E3/uL
ALANINE AMINOTRANSFERASE [2]: 46.33 u/L
ALBUMIN [2]: 4.03 G/DL
ALKALINE PHOSPHATASE [2]: 326.67 u/L
ASPARTATE AMINOTRANSFERASE [2]: 72 u/L
BLOOD UREA NITROGEN [2]: 11 mg/dL
CARBON DIOXIDE [2]: 26 mmol/L
CHLORIDE [2]: 103 MEQ/L
CHOLESTEROL [2]: 84.67 mg/dL
CREATINE PHOSPHOKINASE [2]: 581 u/L
CREATININE [2]: 0.17 mg/dL
GLUCOSE [2]: 154.33 mg/dL
LACTATE DEHYDROGENASE [2]: 228.33 u/L
LIPASE [2]: 9 u/L
PHOSPHORUS [2]: 11.6 mg/dL
POTASSIUM [2]: 6.41 MEQ/L
SODIUM [2]: 143.17 MEQ/L
TOTAL BILIRUBIN [2]: 0.17 mg/dL
TOTAL PROTEIN [2]: 5.97 G/DL
URIC ACID [2]: 1.63 mg/dL
ABSOLUTE BASOPHIL [3]: 0 CELLS/uL
ABSOLUTE EOSINOPHIL [3]: 40.33 CELLS/uL
ABSOLUTE LYMPHOCYTE [3]: 11963 CELLS/uL
ABSOLUTE MONOCYTE [3]: 169.33 CELLS/uL
ABSOLUTE SEGMENTED NEUTROPHIL [3]: 727.33 CELLS/uL
BASOPHIL [3]: 0%
EOSINOPHIL [3]: 0.33%
ERYTHROCYTE COUNT [3]: 5.44 x10E6/uL
HEMATOCRIT [3]: 33.7%
HEMOGLOBIN [3]: 13.17 G/DL
LEUKOCYTE COUNT [3]: 12.9 x10E3/uL
LYMPHOCYTE [3]: 93%
MEAN CORPUSCULAR HEMOGLOBIN [3]: 24.23 pg
MEAN CORPUSCULAR HEMOGLOBIN CONCENTRATION [3]: 39.1 G/DL
MEAN CORPUSCULAR VOLUME [3]: 61.97 fL
MONOCYTE [3]: 1.33%
NEUTROPHIL [3]: 5.33%
NUCLEATED RED BLOOD CELLS [3]: 0 /100WBC
PLATELET COUNT [3]: 1288.67 x10E3/uL
ALANINE AMINOTRANSFERASE [3]: 33.33 u/L
ALBUMIN [3]: 3.97 G/DL
ALKALINE PHOSPHATASE [3]: 316.33 u/L
ASPARTATE AMINOTRANSFERASE [3]: 51.33 u/L
BLOOD UREA NITROGEN [3]: 17.33 mg/dL
CARBON DIOXIDE [3]: 21 mmol/L
CHLORIDE [3]: 104.67 MEQ/L
CHOLESTEROL [3]: 79.67 mg/dL
CREATINE PHOSPHOKINASE [3]: 460 u/L
CREATININE [3]: 0.19 mg/dL
GLUCOSE [3]: 165.33 mg/dL
LACTATE DEHYDROGENASE [3]: 433 u/L
LIPASE [3]: 11.33 u/L
PHOSPHORUS [3]: 10.1 mg/dL
POTASSIUM [3]: 5.88 MEQ/L
SODIUM [3]: 143.5 MEQ/L
TOTAL BILIRUBIN [3]: 0.2 mg/dL
TOTAL PROTEIN [3]: 6.17 G/DL
URIC ACID [3]: 1.43 mg/dL
